Measurements: patent publication US20220041687A1, “A GROUP OF CHIMERIC ANTIGEN RECEPTORS (CARS)” (ST. ANNA KINDERKREBSFORSCHUNG, priority 2018, published 2022)
Where two headings read alike, the source gives them in different places.

Key:
[1] = tested on: human EGFR; test: Binding affinities of rcSso7d-based antigen binding moieties (titration on tEGFR Jurkat T cells, SPR on hEGFR-Fc); settings: comparison in words; own values only in FIG. 2; read-out: affinity of the binding moiety, stated as comparable to that of scFv 4D5-5
Experimental: Jurkat T cells were engineered to express high levels of the respective tumour antigen. […] After washing in PBS, cells were resuspended in PBS containing 0.1% BSA (Sigma Aldrich) and incubated with varying concentrations of the binder proteins fused to sfGFP in order to determine the affinities of the antigen binding moieties towards the respective tumour antigen. After incubation for 1 hour at 4° C. while shaking, plates were centrifuged (450 g, 7 minutes, 4° C.), the supernatant was discarded and cells were acquired with a BD LSRFortessa. Cells were kept on ice to avoid endocytosis. The Kd was obtained by curve fitting using Microsoft Excel (Microsoft Corporation).
SPR experiments were performed with a Biacore T200 instrument (GE Healthcare). All experiments were conducted in degassed and filtered PBS, pH 7.4, containing 0.1% BSA and 0.05% Tween-20 (Merck Millipore), at 25° C. hEGFR-Fc (R&D) was immobilized on a Protein A sensor chip (GE Healthcare) at a flow rate of 10 μL/min for 60 seconds at a concentration 6.67 μg/mL. To determine the affinity of rcSso7d-based antigen binding moieties, five concentrations (depending on the expected Kd of the antigen binding moiety) of the respective protein were injected at a flow rate of 30 μL/min for 15 seconds in the single-cycle kinetic mode, followed by a dissociation step (30 seconds). […]

[2] = tested on: Jurkat T cells expressing tEGFR; test: T cell activation by rcSso7d-based CARs (luciferase-based cytotoxicity assay, IFN-γ ELISA), Example 2; settings: primary human T cells, 4 hours, E:T 2:1; for cytotoxicity: binder fused to "Ser" CAR backbone (monovalent interaction)
Experimental: Luciferase-expressing tumour cells were co-cultured with CAR T cells at an E:T cell ratio of 2:1 with 10,000 target cells/well in white round-bottom 96 well plates (Sigma Aldrich) for 4 hours at 37° C. in cytotoxicity assay medium, consisting of phenol-free RPMI (Thermo Scientific), 10% FCS, 1% L-Glutamine (Thermo Scientific) and 1% penicillin-streptomycin. Finally, remaining living cells were quantified by determination of the residual luciferase activity of the co-culture. After equilibration to room temperature for 10 minutes, luciferin was added to the cell suspension (150 μg/mL final concentration; Perkin Elmer) and luciferase activity was measured 20 minutes later using the ENSPIRE Multimode plate reader. The percentage of specific lysis was determined with the following formula:
% specific lysis=100−((RLU from well with effector and target cell co-culture)/(RLU from well with target cells only)×100)).
Cytokine secretion of primary CAR T cells was assessed by co-cultivation with target cells at E:T ratios of 1:1 or 2:1 in flat-bottom 96 well plates for 4 hours or 24 hours at 37° C. In some experiments, released cytokines were quantified in the supernatants from the co-culture experiments for determining cytotoxicity. The supernatants were centrifuged (1600 rpm, 7 minutes, 4° C.) to remove remaining cells and debris and were subsequently frozen at −80° C. For analysis of secreted IFN-γ, ELISA was performed using the Human IFN gamma ELISA Ready-SET-Go!® kit (eBioscience) according to the manufacturer's instructions. Measurements were conducted using the ENSPIRE Multimode plate reader.

[3] = molecular target: human EGFR; settings: Traxlmayr et al., J Biol Chem. 2016; cited from earlier work
[4] = tested on: Jurkat T cells expressing tHER2; test: Functional screening of affibody-based CARs, luciferase-based cytotoxicity assay, Example 4; format: cell-based, human; settings: affibody variant in CAR backbone 8ser-BB-FKBP (36V)-3z; 10 nM AP20187 or DMSO; 4 hours, E:T 2:1
Experimental: Luciferase-expressing tumour cells were co-cultured with CAR T cells at an E:T cell ratio of 2:1 with 10,000 target cells/well in white round-bottom 96 well plates (Sigma Aldrich) for 4 hours at 37° C. in cytotoxicity assay medium, consisting of phenol-free RPMI (Thermo Scientific), 10% FCS, 1% L-Glutamine (Thermo Scientific) and 1% penicillin-streptomycin. Finally, remaining living cells were quantified by determination of the residual luciferase activity of the co-culture. After equilibration to room temperature for 10 minutes, luciferin was added to the cell suspension (150 μg/mL final concentration) and luciferase activity was measured 20 minutes later using the ENSPIRE Multimode plate reader. The percentage of specific lysis was calculated with the following formula:
Dimerization of transgenes was induced prior to co-cultivation experiments. […] The homodimerization agent AP20187 was diluted in cell culture medium and was added at 10 nM final concentration. Addition of the vehicle control DMSO at the same concentration served as control. Cells were incubated at 37° C. for 30 minutes to ensure efficient dimerization of transgenes and subsequently used for in vitro experiments.

Q: With “E11.4.1-G32A: low affinity alanine mutant G32A of rcSso7d E11.4.1, EGFR binding moiety with the lowest tested affinity” as the substance, how does the Kd [1] read?
A: ~1100 nM

Q: What about the “T cell activation in response to target cells” value ([2]; binder fused to cysteine-containing CAR backbone ("Cys", bivalent)) of the same substance?
A: efficiently triggered T cell activation

Q: And the “T cell activation in response to target cells” value ([2]; binder fused to serine-containing CAR backbone ("Ser", monovalent))?
A: did not or only poorly trigger the T cells

Q: For “rcSso7d E11.4.1: well characterized rcSso7d-based antigen binding moiety which binds to human EGFR (Traxlmayr et al.) [reference compound]”, which cytotoxicity [2] is on record?
A: triggered potent cytotoxicity also upon monovalent interaction

Q: What about the Kd [3] of the same substance?
A: 19 nM

Q: Which “capacity to trigger cytotoxicity in T cells in presence or absence of AP20187” value [4] does the source give for “zHER2-WT: high-affinity HER2 affibody with framework mutations N23A and S33K” here?
A: triggered efficient target cell lysis independent of presence of AP20187

Q: With “E11.4.1-G25A: alanine mutant G25A of rcSso7d E11.4.1, EGFR binding moiety” as the substance, how does the cytotoxicity [2] read?
A: triggered potent cytotoxicity also upon monovalent interaction
